Tested on: Abp1 PPIs
Assay: DHFR-PCA of Abp1 SH3-swapped baits (Fig. 2B-D, S2C, S2F);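 for Protein-protein interaction distance between Abp1 SH3-swapped baits, to ABP1: Euclidean distance between DHFR-PCA score profiles of the baits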;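 for Protein-protein interaction distance between Abp1 SH3-swapped baits, to BEM1-2: Euclidean distance between DHFR-PCA score profiles of the baits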;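 for Protein-protein interaction distance between Abp1 SH3-swapped baits, to BOI1: Euclidean distance between DHFR-PCA score profiles of the baits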;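 for Protein-protein interaction distance between Abp1 SH3-swapped baits, to BZZ1-1: Euclidean distance between DHFR-PCA score profiles of the baits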
Type: cell-based, Saccharomyces cerevisiae
Conditions: for Protein-protein interaction distance between Abp1 SH3-swapped baits, to ABP1: Abp1 bait with swapped SH3, distance to bait with ABP1 SH3; for Protein-protein interaction distance between Abp1 SH3-swapped baits, to ABP1 / Protein-protein interaction distance between Abp1 SH3-swapped baits, to BBC1 / Protein-protein interaction distance between Abp1 SH3-swapped baits, to BEM1-1 / Protein-protein interaction distance between Abp1 SH3-swapped baits, to BEM1-2 / Protein-protein interaction distance between Abp1 SH3-swapped baits, to BOI1 / Protein-protein interaction distance between Abp1 SH3-swapped baits, to BOI2 / Protein-protein interaction distance between Abp1 SH3-swapped baits, to BUD14 / Protein-protein interaction distance between Abp1 SH3-swapped baits, to BZZ1-1 / Protein-protein interaction distance between Abp1 SH3-swapped baits, to BZZ1-2 / Protein-protein interaction distance between Abp1 SH3-swapped baits, to CDC25 / Protein-protein interaction distance between Abp1 SH3-swapped baits, to CTTN / Protein-protein interaction distance between Abp1 SH3-swapped baits, to CYK3 / Protein-protein interaction distance between Abp1 SH3-swapped baits, to DBNL / Protein-protein interaction distance between Abp1 SH3-swapped baits, to FUS1 / Protein-protein interaction distance between Abp1 SH3-swapped baits, to HCLS1 / Protein-protein interaction distance between Abp1 SH3-swapped baits, to HOF1 / Protein-protein interaction distance between Abp1 SH3-swapped baits, to HSE1 / Protein-protein interaction distance between Abp1 SH3-swapped baits, to LSB1 / Protein-protein interaction distance between Abp1 SH3-swapped baits, to LSB3 / Protein-protein interaction distance between Abp1 SH3-swapped baits, to MYO3 / Protein-protein interaction distance between Abp1 SH3-swapped baits, to MYO5 / Protein-protein interaction distance between Abp1 SH3-swapped baits, to NBP2 / Protein-protein interaction distance between Abp1 SH3-swapped baits, to PEX13 / Protein-protein interaction distance between Abp1 SH3-swapped baits, to PIN3 / Protein-protein interaction distance between Abp1 SH3-swapped baits, to RVS167 / Protein-protein interaction distance between Abp1 SH3-swapped baits, to SDC25 / Protein-protein interaction distance between Abp1 SH3-swapped baits, to SHO1 / Protein-protein interaction distance between Abp1 SH3-swapped baits, to SLA1-1 / Protein-protein interaction distance between Abp1 SH3-swapped baits, to SLA1-2 / Protein-protein interaction distance between Abp1 SH3-swapped baits, to SLA1-3 / Protein-protein interaction distance between Abp1 SH3-swapped baits, to YSC84: sheet Fig2C; for Protein-protein interaction distance between Abp1 SH3-swapped baits, to BBC1: distance to Abp1 bait with BBC1 SH3; for Protein-protein interaction distance between Abp1 SH3-swapped baits, to BEM1-1: distance to Abp1 bait with BEM1-1 SH3; for Protein-protein interaction distance between Abp1 SH3-swapped baits, to BEM1-2: distance to Abp1 bait with BEM1-2 SH3; for Protein-protein interaction distance between Abp1 SH3-swapped baits, to BOI1: distance to Abp1 bait with BOI1 SH3; for Protein-protein interaction distance between Abp1 SH3-swapped baits, to BOI2: distance to Abp1 bait with BOI2 SH3; for Protein-protein interaction distance between Abp1 SH3-swapped baits, to BUD14: distance to Abp1 bait with BUD14 SH3; for Protein-protein interaction distance between Abp1 SH3-swapped baits, to BZZ1-1: distance to Abp1 bait with BZZ1-1 SH3; for Protein-protein interaction distance between Abp1 SH3-swapped baits, to BZZ1-2: distance to Abp1 bait with BZZ1-2 SH3; for Protein-protein interaction distance between Abp1 SH3-swapped baits, to CDC25: distance to Abp1 bait with CDC25 SH3; for Protein-protein interaction distance between Abp1 SH3-swapped baits, to CTTN: distance to Abp1 bait with CTTN SH3; for Protein-protein interaction distance between Abp1 SH3-swapped baits, to CYK3: distance to Abp1 bait with CYK3 SH3; for Protein-protein interaction distance between Abp1 SH3-swapped baits, to DBNL: distance to Abp1 bait with DBNL SH3; for Protein-protein interaction distance between Abp1 SH3-swapped baits, to FUS1: distance to Abp1 bait with FUS1 SH3; for Protein-protein interaction distance between Abp1 SH3-swapped baits, to HCLS1: distance to Abp1 bait with HCLS1 SH3; for Protein-protein interaction distance between Abp1 SH3-swapped baits, to HOF1: distance to Abp1 bait with HOF1 SH3; for Protein-protein interaction distance between Abp1 SH3-swapped baits, to HSE1: distance to Abp1 bait with HSE1 SH3; for Protein-protein interaction distance between Abp1 SH3-swapped baits, to LSB1: distance to Abp1 bait with LSB1 SH3; for Protein-protein interaction distance between Abp1 SH3-swapped baits, to LSB3: distance to Abp1 bait with LSB3 SH3; for Protein-protein interaction distance between Abp1 SH3-swapped baits, to MYO3: distance to Abp1 bait with MYO3 SH3; for Protein-protein interaction distance between Abp1 SH3-swapped baits, to MYO5: distance to Abp1 bait with MYO5 SH3; for Protein-protein interaction distance between Abp1 SH3-swapped baits, to NBP2: distance to Abp1 bait with NBP2 SH3; for Protein-protein interaction distance between Abp1 SH3-swapped baits, to PEX13: distance to Abp1 bait with PEX13 SH3; for Protein-protein interaction distance between Abp1 SH3-swapped baits, to PIN3: distance to Abp1 bait with PIN3 SH3; for Protein-protein interaction distance between Abp1 SH3-swapped baits, to RVS167: distance to Abp1 bait with RVS167 SH3; for Protein-protein interaction distance between Abp1 SH3-swapped baits, to SDC25: distance to Abp1 bait with SDC25 SH3; for Protein-protein interaction distance between Abp1 SH3-swapped baits, to SHO1: distance to Abp1 bait with SHO1 SH3; for Protein-protein interaction distance between Abp1 SH3-swapped baits, to SLA1-1: distance to Abp1 bait with SLA1-1 SH3; for Protein-protein interaction distance between Abp1 SH3-swapped baits, to SLA1-2: distance to Abp1 bait with SLA1-2 SH3; for Protein-protein interaction distance between Abp1 SH3-swapped baits, to SLA1-3: distance to Abp1 bait with SLA1-3 SH3; for Protein-protein interaction distance between Abp1 SH3-swapped baits, to YSC84: distance to Abp1 bait with YSC84 SH3; for SH3-dependent PPIs gained by Abp1: DHFR-PCA
From the text: Having determined that multiple PPIs require SH3s, we asked whether the latter establish PPI specificity independently from their host proteins by swapping domains (Fig. 2A). Using the second round of genome editing, we individually replaced Abp1 SH3 with the 27 yeast SH3s and 3 human Abp1 orthologs’ SH3s (CTTN, HCLS1, and DBNL, Fig. 2B). The reintroduction of its own SH3 (Abp1SH3 in Abp1) reconstitutes almost perfectly Abp1’s interaction profile (Kendall’s τ = 0.93, Fig. 2B). […] No homologous SH3 domain fully re-establishes the normal Abp1 PPI profile (Fig. 2B and Supplementary Fig. 2C). However, we observe a significant correlation (cophenetic correlation = 0.20, p value = 0.005, Fig. 2C) between the similarity of PPI profiles (Fig. 2B) and the sequence similarity of the SH3s. […] Nonetheless, a subset of SH3-dependent PPIs is only observed with the endogenous domain. For instance, Hua2 and App1, both well-characterized partners of Abp1[14],[18],[19], are only detected when Abp1 contains its own SH3 (WT or swapped via editing). A given SH3 may therefore not be fully replaceable with other paralogous or orthologous domains. This pattern is confirmed by cellular growth phenotypic analyses (Supplementary Fig. 2D, E). PPIs, SH3 sequence similarity, and growth profiles under stress conditions are correlated (Supplementary Fig. 2D, E). This relationship is particularly clear when analyzing growth on media supplemented with hygromycin.
The stuffing of YSC84 SH3 rendered the strain sterile and was therefore not used for this study as the assays require crosses. For genes containing two SH3s (BZZ1 and BEM1), a combination of this first stuffer with a second one ([…]) coding for a highly similar linker ([…]) was used, which allowed targeting each SH3 position independently. The two N-terminal domains of SLA1, which are separated by six nucleotides, were stuffed by a single stuffer. Cells containing pCAS were selected via the G418 resistance cassette from the plasmid on YPD plates (YPD + NAT 100 μg/ml (DHFR F[1,2] selection) + G418 200 µg/mL (Bioshop Canada)). Colonies were randomly selected and grown in YPD media without G418 to allow plasmid loss. The correct insertion of the stuffer was validated by PCR and Sanger sequencing. The SH3-swapped, -shuffled, and -mutated strains were constructed following a second CRISPR–Cas9 editing step with the same procedures. The stuffer sequences were targeted by specific gRNAs (one gRNA per stuffer) and replaced by PCR amplified specific SH3 (with 40 bp homology arms) or libraries of mutated SH3 domains for Deep Mutational Scanning (DMS) with 78 bp flanking homology regions. Validation of the SH3 domain insertions was done as we previously described except for DMS libraries (see below).
The overall DHFR-PCA pipeline is based on Tarassov et al.[43] and the procedures have also been published as a visualized protocol. The screens were performed with robotically manipulated pin tools (BM5-SC1, S&P Robotics Inc.). First, the preys were cherry-picked from 96-well plates to omnitrays in a 384 format on YPD + HPH solid media. Plates were then combined into the 1536 format on YPD + HPH. The array was constituted of 575 preys previously shown to interact physically with at least one SH3-containing protein as reported in BioGRID V3.4.16 along with 40 negative controls. The prey array comprised a border of control strains of two rows and two columns corresponding to the PPI between LSM8-DHFR F[1,2] and CDC39-DHFR F[3]. This double border was used to remove border effects. Preys are present in duplicate at a randomized position in the 1536 array (except for YAL041W which is present four times per array). Baits were crossed with two prey plates, resulting in four independent bait–prey tests for each PPI. Baits were grown in liquid YPD + NAT and then transferred on solid YPD + NAT omnitrays. They were then replicated on YPD + NAT omnitrays in 1536 array format. […]

[1] = number of PPIs, difference, Abp1 SH3-swapped with the listed SH3, Fig2D,S2F
[2] = number of PPIs, Abp1 SH3-swapped with the listed SH3, Fig2D,S2F
[3] = Fig2B, bait ABP1, label = prey, Replicates 4

Substance | Protein-protein interaction distance between Abp1 SH3-swapped baits, to ABP1 | Protein-protein interaction distance between Abp1 SH3-swapped baits, to BBC1 | Protein-protein interaction distance between Abp1 SH3-swapped baits, to BEM1-1 | Protein-protein interaction distance between Abp1 SH3-swapped baits, to BEM1-2 | Protein-protein interaction distance between Abp1 SH3-swapped baits, to BOI1 | Protein-protein interaction distance between Abp1 SH3-swapped baits, to BOI2 | Protein-protein interaction distance between Abp1 SH3-swapped baits, to BUD14 | Protein-protein interaction distance between Abp1 SH3-swapped baits, to BZZ1-1 | Protein-protein interaction distance between Abp1 SH3-swapped baits, to BZZ1-2 | Protein-protein interaction distance between Abp1 SH3-swapped baits, to CDC25 | Protein-protein interaction distance between Abp1 SH3-swapped baits, to CTTN | Protein-protein interaction distance between Abp1 SH3-swapped baits, to CYK3 | Protein-protein interaction distance between Abp1 SH3-swapped baits, to DBNL | Protein-protein interaction distance between Abp1 SH3-swapped baits, to FUS1 | Protein-protein interaction distance between Abp1 SH3-swapped baits, to HCLS1 | Protein-protein interaction distance between Abp1 SH3-swapped baits, to HOF1 | Protein-protein interaction distance between Abp1 SH3-swapped baits, to HSE1 | Protein-protein interaction distance between Abp1 SH3-swapped baits, to LSB1 | Protein-protein interaction distance between Abp1 SH3-swapped baits, to LSB3 | Protein-protein interaction distance between Abp1 SH3-swapped baits, to MYO3 | further results
RVS167 | 9.548 | 9.304 | 14.67 | 33.63 | 11.58 | 15.22 | 18.02 | 5.914 | 11.17 | 27.4 | 12.4 | 28.09 | 5.554 | 19.5 | 7.638 | 32.19 | 7.315 | 7.392 | 7.852 | 9.049 | Protein-protein interaction distance between Abp1 SH3-swapped baits, to MYO5: 7.689; Protein-protein interaction distance between Abp1 SH3-swapped baits, to NBP2: 17.22; Protein-protein interaction distance between Abp1 SH3-swapped baits, to PEX13: 4.587; Protein-protein interaction distance between Abp1 SH3-swapped baits, to PIN3: 5.294; Protein-protein interaction distance between Abp1 SH3-swapped baits, to RVS167: 0.00; Protein-protein interaction distance between Abp1 SH3-swapped baits, to SDC25: 34.37; Protein-protein interaction distance between Abp1 SH3-swapped baits, to SHO1: 6.815; Protein-protein interaction distance between Abp1 SH3-swapped baits, to SLA1-1: 30.09; Protein-protein interaction distance between Abp1 SH3-swapped baits, to SLA1-2: 19.9; Protein-protein interaction distance between Abp1 SH3-swapped baits, to SLA1-3: 7.698; Protein-protein interaction distance between Abp1 SH3-swapped baits, to YSC84: 8.283; PPIs gained by Abp1 - SH3-dependent PPIs gained by Abp1 [1]: 9; SH3-dependent PPIs - SH3-dependent PPIs gained by Abp1 [1]: 26; SH3-dependent PPIs gained by Abp1 [2]: 5
CDC25 | 26.13 | 24.45 | 16.86 | 13.04 | 21 | 19.43 | 15.51 | 25.36 | 21.74 | 0.00 | 20.74 | 5.497 | 24.44 | 14.2 | 27.89 | 10.42 | 24.19 | 30.85 | 30.47 | 29.41 | Protein-protein interaction distance between Abp1 SH3-swapped baits, to MYO5: 28.8; Protein-protein interaction distance between Abp1 SH3-swapped baits, to NBP2: 15.13; Protein-protein interaction distance between Abp1 SH3-swapped baits, to PEX13: 29.16; Protein-protein interaction distance between Abp1 SH3-swapped baits, to PIN3: 28.09; Protein-protein interaction distance between Abp1 SH3-swapped baits, to RVS167: 27.4; Protein-protein interaction distance between Abp1 SH3-swapped baits, to SDC25: 14.8; Protein-protein interaction distance between Abp1 SH3-swapped baits, to SHO1: 24.02; Protein-protein interaction distance between Abp1 SH3-swapped baits, to SLA1-1: 7.329; Protein-protein interaction distance between Abp1 SH3-swapped baits, to SLA1-2: 13.18; Protein-protein interaction distance between Abp1 SH3-swapped baits, to SLA1-3: 30.95; Protein-protein interaction distance between Abp1 SH3-swapped baits, to YSC84: 30.76; SH3-dependent PPIs - SH3-dependent PPIs gained by Abp1 [1]: 3; SH3-dependent PPIs gained by Abp1 [2]: 0
YAL005C | – | – | – | – | – | – | – | – | – | – | – | – | – | – | – | – | – | – | – | – | medrep (log2 median colony size normalized to plate background) [3]: 5.43; medsize (median colony size) [3]: 6098

Reference: PMC7954794, “Protein context shapes the specificity of SH3 domain-mediated interactions in vivo” (Nature Communications, 2021)
